Source: patent US12391648B2, “Pyridyloxy thioester derivative and preparation method therefor, herbicidal composition, and application” (Qingdao Kingagroot Chemical Compound Co., Ltd., priority 2018, dated 2025)

Legend:
Test in all cases: Post-emergence test experiment (Table 3, 1000 g/ha)
Type in all cases: in vivo
Settings in all cases: post-emergence spray, after 3 weeks, fresh weight inhibition
Monochoria vaginalis = system: Monochoria vaginalis
Outline: (§1)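 Activity graded levels 0-5 by fresh-weight inhibition (level 5 above 85%, level 0 below 5%), assessed 3 weeks after treatment. Plants grown in greenhouse pots were sprayed post-emergence at 2-3 leaves using acetone/tween-80 solutions with methyl oleate synergist (1.5 L/ha).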

Setaria viridis = system: Setaria viridis
Outline: as §1

Galium spurium = system: Galium spurium
Outline: as §1

Abutilon theophrasti = system: Abutilon theophrasti
Outline: as §1

Digitaria sanguinalis = system: Digitaria sanguinalis
Outline: as §1

Leptochloa chinensis = system: Leptochloa chinensis
Outline: as §1

## CC(Oc1nc(F)c(Cl)c(N)c1Cl)C(=O)Sc1cccc(C(C)C)c1 (stereo not drawn) [Compound 113]
Monochoria vaginalis
  Activity level (growth inhibition rate) Monochoria Vaginalis: 5 (Level 5: the growth inhibition rate is greater than 85%)
Setaria viridis
  Activity level (growth inhibition rate) Setaria viridis: 5 (Level 5: the growth inhibition rate is greater than 85%)
Galium spurium
  Activity level (growth inhibition rate) Galium spurium: 5 (Level 5: the growth inhibition rate is greater than 85%)
Abutilon theophrasti
  Activity level (growth inhibition rate) Abutilon theophrasti: 5 (Level 5: the growth inhibition rate is greater than 85%)
Digitaria sanguinalis
  Activity level (growth inhibition rate) Digitaria sanguinalis: 5 (Level 5: the growth inhibition rate is greater than 85%)
Leptochloa chinensis
  Activity level (growth inhibition rate) Leptochloa chinensis: 5 (Level 5: the growth inhibition rate is greater than 85%)

## CCOCSC(=O)C(C)Oc1nc(F)c(Cl)c(N)c1Cl (stereo not drawn) [Compound 86]
Monochoria vaginalis
  Activity level (growth inhibition rate) Monochoria Vaginalis: 5 (Level 5: the growth inhibition rate is greater than 85%)
Setaria viridis
  Activity level (growth inhibition rate) Setaria viridis: 5 (Level 5: the growth inhibition rate is greater than 85%)
Galium spurium
  Activity level (growth inhibition rate) Galium spurium: 5 (Level 5: the growth inhibition rate is greater than 85%)
Abutilon theophrasti
  Activity level (growth inhibition rate) Abutilon theophrasti: 5 (Level 5: the growth inhibition rate is greater than 85%)
Digitaria sanguinalis
  Activity level (growth inhibition rate) Digitaria sanguinalis: 5 (Level 5: the growth inhibition rate is greater than 85%)
Leptochloa chinensis
  Activity level (growth inhibition rate) Leptochloa chinensis: 5 (Level 5: the growth inhibition rate is greater than 85%)

## CSC(=O)C(C)Oc1ncc(I)c(N)c1I (stereo not drawn) [Compound 13]
Monochoria vaginalis
  Activity level (growth inhibition rate) Monochoria Vaginalis: 5 (Level 5: the growth inhibition rate is greater than 85%)
Setaria viridis
  Activity level (growth inhibition rate) Setaria viridis: 5 (Level 5: the growth inhibition rate is greater than 85%)
Galium spurium
  Activity level (growth inhibition rate) Galium spurium: 5 (Level 5: the growth inhibition rate is greater than 85%)
Abutilon theophrasti
  Activity level (growth inhibition rate) Abutilon theophrasti: 5 (Level 5: the growth inhibition rate is greater than 85%)
Digitaria sanguinalis
  Activity level (growth inhibition rate) Digitaria sanguinalis: 5 (Level 5: the growth inhibition rate is greater than 85%)
Leptochloa chinensis
  Activity level (growth inhibition rate) Leptochloa chinensis: 5 (Level 5: the growth inhibition rate is greater than 85%)

## CSC(=O)C(C)Oc1nc(F)c(C(F)(F)F)c(N)c1Cl (stereo not drawn) [Compound 15]
Monochoria vaginalis
  Activity level (growth inhibition rate) Monochoria Vaginalis: 5 (Level 5: the growth inhibition rate is greater than 85%)
Setaria viridis
  Activity level (growth inhibition rate) Setaria viridis: 5 (Level 5: the growth inhibition rate is greater than 85%)
Galium spurium
  Activity level (growth inhibition rate) Galium spurium: 5 (Level 5: the growth inhibition rate is greater than 85%)
Abutilon theophrasti
  Activity level (growth inhibition rate) Abutilon theophrasti: 5 (Level 5: the growth inhibition rate is greater than 85%)
Digitaria sanguinalis
  Activity level (growth inhibition rate) Digitaria sanguinalis: 5 (Level 5: the growth inhibition rate is greater than 85%)
Leptochloa chinensis
  Activity level (growth inhibition rate) Leptochloa chinensis: 5 (Level 5: the growth inhibition rate is greater than 85%)

## CC(Oc1nc(F)c(Cl)c(N)c1Cl)C(=O)Sc1cccc(Cl)c1 (stereo not drawn) [Compound 110]
Monochoria vaginalis
  Activity level (growth inhibition rate) Monochoria Vaginalis: 5 (Level 5: the growth inhibition rate is greater than 85%)
Setaria viridis
  Activity level (growth inhibition rate) Setaria viridis: 5 (Level 5: the growth inhibition rate is greater than 85%)
Galium spurium
  Activity level (growth inhibition rate) Galium spurium: 5 (Level 5: the growth inhibition rate is greater than 85%)
Abutilon theophrasti
  Activity level (growth inhibition rate) Abutilon theophrasti: 5 (Level 5: the growth inhibition rate is greater than 85%)
Digitaria sanguinalis
  Activity level (growth inhibition rate) Digitaria sanguinalis: 5 (Level 5: the growth inhibition rate is greater than 85%)
Leptochloa chinensis
  Activity level (growth inhibition rate) Leptochloa chinensis: 5 (Level 5: the growth inhibition rate is greater than 85%)

## CC(Oc1nc(F)c(Cl)c(N)c1Cl)C(=O)Sc1ccncc1 (stereo not drawn) [Compound 116]
Monochoria vaginalis
  Activity level (growth inhibition rate) Monochoria Vaginalis: 5 (Level 5: the growth inhibition rate is greater than 85%)
Setaria viridis
  Activity level (growth inhibition rate) Setaria viridis: 5 (Level 5: the growth inhibition rate is greater than 85%)
Galium spurium
  Activity level (growth inhibition rate) Galium spurium: 5 (Level 5: the growth inhibition rate is greater than 85%)
Abutilon theophrasti
  Activity level (growth inhibition rate) Abutilon theophrasti: 5 (Level 5: the growth inhibition rate is greater than 85%)
Digitaria sanguinalis
  Activity level (growth inhibition rate) Digitaria sanguinalis: 5 (Level 5: the growth inhibition rate is greater than 85%)
Leptochloa chinensis
  Activity level (growth inhibition rate) Leptochloa chinensis: 5 (Level 5: the growth inhibition rate is greater than 85%)

## CCCc1c(F)nc(OC(C)C(=O)SC)c(C2CC2)c1N (stereo not drawn) [Compound 14]
Monochoria vaginalis
  Activity level (growth inhibition rate) Monochoria Vaginalis: 5 (Level 5: the growth inhibition rate is greater than 85%)
Setaria viridis
  Activity level (growth inhibition rate) Setaria viridis: 5 (Level 5: the growth inhibition rate is greater than 85%)
Galium spurium
  Activity level (growth inhibition rate) Galium spurium: 5 (Level 5: the growth inhibition rate is greater than 85%)
Abutilon theophrasti
  Activity level (growth inhibition rate) Abutilon theophrasti: 5 (Level 5: the growth inhibition rate is greater than 85%)
Digitaria sanguinalis
  Activity level (growth inhibition rate) Digitaria sanguinalis: 5 (Level 5: the growth inhibition rate is greater than 85%)
Leptochloa chinensis
  Activity level (growth inhibition rate) Leptochloa chinensis: 5 (Level 5: the growth inhibition rate is greater than 85%)

## CC(Oc1nc(F)c(Cl)c(N)c1Cl)C(=O)SCC(F)F (stereo not drawn) [Compound 157]
Monochoria vaginalis
  Activity level (growth inhibition rate) Monochoria Vaginalis: 5 (Level 5: the growth inhibition rate is greater than 85%)
Setaria viridis
  Activity level (growth inhibition rate) Setaria viridis: 5 (Level 5: the growth inhibition rate is greater than 85%)
Galium spurium
  Activity level (growth inhibition rate) Galium spurium: 5 (Level 5: the growth inhibition rate is greater than 85%)
Abutilon theophrasti
  Activity level (growth inhibition rate) Abutilon theophrasti: 5 (Level 5: the growth inhibition rate is greater than 85%)
Digitaria sanguinalis
  Activity level (growth inhibition rate) Digitaria sanguinalis: 5 (Level 5: the growth inhibition rate is greater than 85%)
Leptochloa chinensis
  Activity level (growth inhibition rate) Leptochloa chinensis: 5 (Level 5: the growth inhibition rate is greater than 85%)

## CCC(C)SC(=O)C(C)Oc1nc(F)c(Cl)c(N)c1Cl (stereo not drawn) [Compound 69]
Monochoria vaginalis
  Activity level (growth inhibition rate) Monochoria Vaginalis: 5 (Level 5: the growth inhibition rate is greater than 85%)
Setaria viridis
  Activity level (growth inhibition rate) Setaria viridis: 5 (Level 5: the growth inhibition rate is greater than 85%)
Galium spurium
  Activity level (growth inhibition rate) Galium spurium: 5 (Level 5: the growth inhibition rate is greater than 85%)
Abutilon theophrasti
  Activity level (growth inhibition rate) Abutilon theophrasti: 5 (Level 5: the growth inhibition rate is greater than 85%)
Digitaria sanguinalis
  Activity level (growth inhibition rate) Digitaria sanguinalis: 5 (Level 5: the growth inhibition rate is greater than 85%)
Leptochloa chinensis
  Activity level (growth inhibition rate) Leptochloa chinensis: 5 (Level 5: the growth inhibition rate is greater than 85%)

## CC(Oc1nc(F)c(Cl)c(N)c1Cl)C(=O)SS(C)(=O)=O (stereo not drawn) [Compound 105]
Monochoria vaginalis
  Activity level (growth inhibition rate) Monochoria Vaginalis: 5 (Level 5: the growth inhibition rate is greater than 85%)
Setaria viridis
  Activity level (growth inhibition rate) Setaria viridis: 5 (Level 5: the growth inhibition rate is greater than 85%)
Galium spurium
  Activity level (growth inhibition rate) Galium spurium: 5 (Level 5: the growth inhibition rate is greater than 85%)
Abutilon theophrasti
  Activity level (growth inhibition rate) Abutilon theophrasti: 5 (Level 5: the growth inhibition rate is greater than 85%)
Digitaria sanguinalis
  Activity level (growth inhibition rate) Digitaria sanguinalis: 5 (Level 5: the growth inhibition rate is greater than 85%)
Leptochloa chinensis
  Activity level (growth inhibition rate) Leptochloa chinensis: 5 (Level 5: the growth inhibition rate is greater than 85%)

## CCC(C)(C)SC(=O)C(C)Oc1nc(F)c(Cl)c(N)c1Cl (stereo not drawn) [Compound 149]
Monochoria vaginalis
  Activity level (growth inhibition rate) Monochoria Vaginalis: 5 (Level 5: the growth inhibition rate is greater than 85%)
Setaria viridis
  Activity level (growth inhibition rate) Setaria viridis: 5 (Level 5: the growth inhibition rate is greater than 85%)
Galium spurium
  Activity level (growth inhibition rate) Galium spurium: 5 (Level 5: the growth inhibition rate is greater than 85%)
Abutilon theophrasti
  Activity level (growth inhibition rate) Abutilon theophrasti: 5 (Level 5: the growth inhibition rate is greater than 85%)
Digitaria sanguinalis
  Activity level (growth inhibition rate) Digitaria sanguinalis: 5 (Level 5: the growth inhibition rate is greater than 85%)
Leptochloa chinensis
  Activity level (growth inhibition rate) Leptochloa chinensis: 5 (Level 5: the growth inhibition rate is greater than 85%)
